Reference: the NIST ThermoML archive (doi:10.1021/je500448j)
± gives the expanded uncertainty stated by the source.

Settings: 298.15 K; 101.33 kPa; Liquid; Vibrating tube method

Structure (SMILES)	mass density
CN(C)c1ccccc1 [N,N-dimethylaniline]	952.05 ± 0.23 kg/m3
Nc1ccccc1 [aniline]	1017.39 ± 0.09 kg/m3
